Values joined by “and” are separate entries in the source; they are usually repeats but may differ in a detail not shown here. Equal values may be shown once. Where a name gives a salt, the structure may show the parent alone. Read-outs that look alike come from different tables or passages of the source.
How the values were obtained:
[1] = molecular target: human histamine H3 receptor (hH3R) (Homo sapiens, UniProt Q9Y5N1); experiment: [3H]Nα-methylhistamine radioligand binding assay in CHO-K1 cells stably expressing hH3R; design: expressed in transfected cells; host or cells: CHO-K1; settings: for Ki: CHO-K1 cells, [3H]Nα-methylhistamine, mean ± SEM of three independent experiments; for hH3R activity in words / inhibition at 1 µM: CHO K1 cells; for inhibition at 1 µM: two independent experiments, read-out: hH3R % Inh. (radioligand inhibition)
Chain of human histamine H3 receptor (hH3R) (Q9Y5N1 whole entry): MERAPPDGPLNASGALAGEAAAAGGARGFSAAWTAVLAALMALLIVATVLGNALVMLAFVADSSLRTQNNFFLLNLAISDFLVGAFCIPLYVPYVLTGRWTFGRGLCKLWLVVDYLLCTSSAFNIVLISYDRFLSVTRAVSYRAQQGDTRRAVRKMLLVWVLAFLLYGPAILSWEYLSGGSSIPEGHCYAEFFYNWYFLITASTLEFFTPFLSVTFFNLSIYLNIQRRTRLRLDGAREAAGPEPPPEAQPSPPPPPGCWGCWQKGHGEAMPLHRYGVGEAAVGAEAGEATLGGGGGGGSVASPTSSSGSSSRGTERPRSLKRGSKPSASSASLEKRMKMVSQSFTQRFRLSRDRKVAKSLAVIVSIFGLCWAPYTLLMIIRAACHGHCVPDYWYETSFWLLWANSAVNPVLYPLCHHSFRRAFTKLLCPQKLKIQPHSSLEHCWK
Protocol: Affinity to hH3R stably expressed in CHO-K1 [6] or HEK293 [11] cells was evaluated in a radioligand binding assay as described previously. Briefly, 10 mM stock solutions of the test compounds in DMSO were prepared. Each compound was tested at eight concentrations ranging from 10^−5 to 10^−12 M (final concentration). All assays were carried out in duplicate. […] The radioactivity was counted in MicroBeta 2 [6] or MicroBeta Trilux counter (PerkinElmer). Data were fitted to a one-site curve-fitting equation with Prism 6 (GraphPad Software, San Diego, CA, USA) and Ki values were calculated from IC50 values (from at least three experiments performed in duplicates) according to the Cheng−Prusoff equation [12].
Affinity for hH3R was evaluated in a radioligand binding assay using [^3H]N^α-methylhistamine as radioligand in CHO K1 or HEK293 cells stably expressing hH3R as described previously. […] Then, those with at least 50% inhibition for hH3R were selected for further testing (Ki evaluation). […] Compounds were tested in the binding assay in HEK293 cells.

human MAO B (hMAO B) [2] = molecular target: T1, human MAO B (hMAO B) (Homo sapiens, UniProt P27338); experiment: fluorometric MAO assay (p-tyramine substrate); format: biochemical; settings: for IC50: fluorometric MAO assay, mean ± SEM of 2–4 independent experiments; for inhibition at 1 µM: mean of two independent experiments, read-out: hMAO B % of Inh.
T1 sequence (P27338 1-520): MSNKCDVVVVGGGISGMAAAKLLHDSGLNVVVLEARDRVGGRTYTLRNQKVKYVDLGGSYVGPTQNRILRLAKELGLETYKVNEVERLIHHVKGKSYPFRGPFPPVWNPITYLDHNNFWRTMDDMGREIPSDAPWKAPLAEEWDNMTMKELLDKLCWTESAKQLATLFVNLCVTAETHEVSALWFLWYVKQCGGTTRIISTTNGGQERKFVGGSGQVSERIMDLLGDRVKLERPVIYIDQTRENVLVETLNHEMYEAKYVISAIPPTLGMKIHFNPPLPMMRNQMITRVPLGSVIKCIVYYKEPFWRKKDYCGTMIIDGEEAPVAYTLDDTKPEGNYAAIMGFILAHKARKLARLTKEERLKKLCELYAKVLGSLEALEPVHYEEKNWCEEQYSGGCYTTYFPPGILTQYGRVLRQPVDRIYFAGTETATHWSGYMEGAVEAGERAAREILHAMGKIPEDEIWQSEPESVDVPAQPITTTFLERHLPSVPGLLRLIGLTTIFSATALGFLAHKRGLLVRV
Protocol: The precise method was described in [6]. First, compounds 4–32 were screened for hMAO B inhibitory activity at 1 μM concentration by the fluorometric method. Para-tyramine (200 μM) was used as a substrate for the enzyme and safinamide (1 μM) was used as a reference compound. […] Each experiment was performed in duplicate.
All compounds were first screened for hMAO B inhibitory activity at the concentration of 1 μM. […] Based on the results, we selected compounds 9 and 13 for further analysis.

MAO B = molecular target: T2, MAO B (Homo sapiens, UniProt P27338); experiment: reversibility of MAO B inhibition (reactivation by excess p-tyramine, with/without preincubation); format: biochemical; settings: inhibitor at IC80; for reversibility of MAO B inhibition: excess p-tyramine 200 µM
T2 sequence (P27338 1-520): T1 sequence (P27338 1-520)
Protocol: The reversibility of the MAO inhibition was tested as described in [6, 7]. […] Two variants of experiment were performed. […] After 22 min, the concentration of the substrate was increased to 200 µM and the signal was measured for 5 h.

human MAO B (hMAO B) [3] = molecular target: T1, human MAO B (hMAO B); experiment: modality of hMAO B inhibition (Michaelis-Menten / Lineweaver-Burk); format: biochemical
Protocol: Modality of hMAO B inhibition was evaluated for compounds 9 and 13 and the reference safinamide according to the method described previously. Three concentrations of inhibitors, corresponding to their IC20, IC50 and IC80 values, were used. Each experiment was performed in triplicate. KM and Vmax values were calculated from Michaelis–Menten curves by nonlinear regression from the substrate. Lineweaver–Burk plots were calculated using linear regression in GraphPad Prism 6.07 (GraphPad Software, San Diego, CA, USA).
For testing modality of enzyme inhibition, we used three concentrations of inhibitors that corresponded to their IC20, IC50 and IC80 values. Substrate (p-tyramine) was used at concentrations: 0.05, 0.1, 0.5, 1.0, 1.5 and 2.0 mM.

[4] = inhibitor at IC20, IC50, IC80, p-tyramine 0.05–2.0 mM

CCN(C)CCCOc1ccc(C(C)(C)C)cc1 [Compound 5, 3-(4-(tert-Butyl)phenoxy)-N-ethyl-N-methylpropan-1-amine hydrogen oxalate]
Ki ([1]; read-out: hH3R Ki [nM] ± SEM): 484 ± 15 nM
IC50 (human MAO B (hMAO B) [2]): 0.009 µM

CC(C)(C)c1ccc(OCCCN2CCCCC2)cc1 [DL76, 1-(3-(4-tert-butylphenoxy)propyl)piperidine, reference compound]
Ki ([1]; read-out: hH3R Ki [nM] ± SEM): 57 nM and 57.5 nM

CC(C)(C)c1ccc(OCCCN2CCN(C/C=C\c3ccccc3)CC2)cc1.O=C(O)C(=O)O [Compound 17, (Z)-1-(3-(4-(tert-Butyl)phenoxy)propyl)-4-(3-phenylallyl)piperazine hydrogen oxalate]
melting point: 217 to 219 °C
hH3R activity in words [1]: no activity at all
inhibition at 1 µM [1]: 0%
inhibition at 1 µM (human MAO B (hMAO B) [2]): 7%

CC(C)(C)c1cccc(OCCCN2CCCCC2)c1 [Compound 25, 1-(3-(3-(tert-Butyl)phenoxy)propyl)piperidine hydrogen chloride]
Ki ([1]; read-out: hH3R Ki [nM] ± SEM): 340 ± 23 nM
IC50 (human MAO B (hMAO B) [2]): 1.02 ± 0.069 µM

CN(C)CCCOc1ccc(C(C)(C)C)cc1 [Compound 4, 3-(4-(tert-Butyl)phenoxy)-N,N-dimethylpropan-1-amine hydrogen oxalate]
inhibition at 1 µM [1]: 24%
IC50 (human MAO B (hMAO B) [2]): 0.019 ± 0.002 µM

CC(C)(C)c1ccccc1OCCCN1CCCCC1 [Compound 24, 1-(3-(2-(tert-Butyl)phenoxy)propyl)piperidine hydrogen oxalate]
Ki ([1]; read-out: hH3R Ki [nM] ± SEM): > 1000 nM
inhibition at 1 µM [1]: 13%
inhibition at 1 µM (human MAO B (hMAO B) [2]): 4%

CC(C)(C)CC(C)(C)NC(=O)OCCCN1CCCCC1 [Compound 31, 3-(Piperidin-1-yl)propyl (2,4,4-trimethylpentan-2-yl)carbamate hydrogen oxalate]
inhibition at 1 µM [1]: 19%
inhibition at 1 µM (human MAO B (hMAO B) [2]): 41%

Cc1ccc(OCCCN2CCCCC2)c(C(C)(C)C)c1.O=C(O)C(=O)O [Compound 28, 1-(3-(2-(tert-Butyl)-4-methylphenoxy)propyl)piperidine hydrogen oxalate]
melting point: 182 to 184 °C
Ki ([1]; read-out: hH3R Ki [nM] ± SEM): 448 ± 59 nM
inhibition at 1 µM (human MAO B (hMAO B) [2]): 7%

C[C@H](NCc1ccc(OCc2cccc(F)c2)cc1)C(N)=O [Safinamide, reference compound]
effect of 30 min preincubation on inhibition (preincubated vs non-preincubated) (MAO B): did not show differences between the variants
reversibility of MAO B inhibition (MAO B): reversible inhibition
Affinity (free enzyme vs enzyme-substrate complex) (human MAO B (hMAO B) [3]): Free enzyme > enzyme-substrate complex
Mode of inhibition from kinetic values and LB plot (human MAO B (hMAO B) [3]): Mixed mode
Lines on LB plot (human MAO B (hMAO B) [3]; Lineweaver–Burk double-reciprocal plot): Lines intersect to the left of y-axis and above x-axis
app. KM (human MAO B (hMAO B) [3]; [4]): ↑ curvilinearly with ↑ [I]
app. Vmax (human MAO B (hMAO B) [3]; [4]): ↓ curvilinearly with ↑ [I]
app. Vmax/app. KM (human MAO B (hMAO B) [3]; [4]): ↓ curvilinearly with ↑ [I]

CCN(CC)CCCOc1ccc(C(C)(C)C)cc1 [Compound 7, 3-(4-(tert-Butyl)phenoxy)-N,N-diethylpropan-1-amine hydrogen oxalate]
inhibition at 1 µM [1]: 32%
IC50 (human MAO B (hMAO B) [2]): 0.015 ± 0.004 µM

CC(C)(C)c1ccc(OCCCN2CCN(c3ccccc3)CC2)cc1.O=C(O)C(=O)O [Compound 16, 1-(3-(4-(tert-Butyl)phenoxy)propyl)-4-phenylpiperazine hydrogen oxalate]
melting point: 164 to 166 °C
hH3R activity in words [1]: weak potency
Ki ([1]; hH3R Ki [nM] ± SEM): 535 ± 41 nM
inhibition at 1 µM (human MAO B (hMAO B) [2]): 14%

CC(C)(C)NC(=O)OCCCN1CCCCC1 [Compound 30, 3-(Piperidin-1-yl)propyl tert-butylcarbamate hydrogen oxalate]
inhibition at 1 µM [1]: 15%
inhibition at 1 µM (human MAO B (hMAO B) [2]): 47%

CCN(CC)CCCOc1ccc(C(C)(C)C)cc1.O=C(O)C(=O)O (hydrate or solvate) [Compound 7, 3-(4-(tert-Butyl)phenoxy)-N,N-diethylpropan-1-amine hydrogen oxalate]
melting point: 105 to 108 °C

CC(C)N(C)CCCOc1ccc(C(C)(C)C)cc1 [Compound 6, 3-(4-(tert-Butyl)phenoxy)-N-isopropyl-N-methylpropan-1-amine hydrogen oxalate]
Ki ([1]; read-out: hH3R Ki [nM] ± SEM): 900 ± 75 nM
IC50 (human MAO B (hMAO B) [2]): 0.006 ± 0.001 µM

C#CCN[C@@H]1CCc2ccccc21 [rasagiline, reference compound]
effect of 30 min preincubation on inhibition (preincubated vs non-preincubated) (MAO B): inhibited the enzyme more strongly than non-preincubated
reversibility of MAO B inhibition (MAO B): Irreversible inhibition

CC(C)(C)c1cccc(OCCCN2CCCCC2)c1.Cl (hydrate or solvate) [Compound 25, 1-(3-(3-(tert-Butyl)phenoxy)propyl)piperidine hydrogen chloride]
melting point: 145 to 148 °C

CC(C)(C)c1ccc(NC(=O)OCCCN2CCCCC2)cc1 [Compound 29, 3-(Piperidin-1-yl)propyl (4-(tert-butyl)phenyl)carbamate hydrogen oxalate]
Ki ([1]; read-out: hH3R Ki [nM] ± SEM): > 1000 nM
inhibition at 1 µM [1]: 32%
IC50 (human MAO B (hMAO B) [2]): 2.33 ± 0.436 µM

CC(C)N(CCCOc1ccc(C(C)(C)C)cc1)C(C)C [Compound 8, 3-(4-(tert-Butyl)phenoxy)-N,N-diisopropylpropan-1-amine hydrogen chloride]
inhibition at 1 µM [1]: 8%
IC50 (human MAO B (hMAO B) [2]): 0.037 ± 0.006 µM

CN1CCN(CCCOc2ccc(C(C)(C)C)cc2)CC1.O=C(O)C(=O)O [Compound 15, 1-(3-(4-(tert-Butyl)phenoxy)propyl)-4-methylpiperazine hydrogen oxalate]
hH3R activity in words [1]: no activity at all
inhibition at 1 µM [1]: 0%
IC50 (human MAO B (hMAO B) [2]): 0.665 ± 0.118 µM

CC(C)(C)c1ccc(OCCCN2CCOCC2)cc1.O=C(O)C(=O)O [Compound 14, 4-(3-(4-(tert-Butyl)phenoxy)propyl)morpholine hydrogen oxalate]
melting point: 188 to 192 °C
hH3R activity in words [1]: weak potency
inhibition at 1 µM [1]: 11%
IC50 (human MAO B (hMAO B) [2]): 0.192 ± 0.014 µM

CC(C)(C)CCNC(=O)OCCCN1CCCCC1 [Compound 32, 3-(Piperidin-1-yl)propyl (3,3-dimethylbutyl)carbamate hydrogen oxalate]
inhibition at 1 µM [1]: 20%
IC50 (human MAO B (hMAO B) [2]): 0.925 ± 0.029 µM

Cc1ccc(C(C)(C)C)c(OCCCN2CCCCC2)c1 [Compound 27, 1-(3-(2-(tert-Butyl)-5-methylphenoxy)propyl)piperidine hydrogen oxalate]
Ki ([1]; read-out: hH3R Ki [nM] ± SEM): > 1000 nM
inhibition at 1 µM [1]: 0%
inhibition at 1 µM (human MAO B (hMAO B) [2]): 4%

Cc1cccc(C(C)(C)C)c1OCCCN1CCCCC1.O=C(O)C(=O)O [Compound 26, 1-(3-(2-(tert-Butyl)-6-methylphenoxy)propyl)piperidine hydrogen oxalate]
melting point: 134 to 135 °C
Ki ([1]; read-out: hH3R Ki [nM] ± SEM): > 1000 nM
inhibition at 1 µM [1]: 0%
inhibition at 1 µM (human MAO B (hMAO B) [2]): 0%

CC1CCCC(C)N1CCCOc1ccc(C(C)(C)C)cc1.Cl (centres unmarked) (hydrate or solvate) [Compound 11, 1-(3-(4-(tert-Butyl)phenoxy)propyl)-2,6-dimethylpiperidine hydrogen chloride]
melting point: 194 to 196 °C (dec.)

CC1CCCC(C)N1CCCOc1ccc(C(C)(C)C)cc1 (centres unmarked) [Compound 11, 1-(3-(4-(tert-Butyl)phenoxy)propyl)-2,6-dimethylpiperidine hydrogen chloride]
Ki ([1]; read-out: hH3R Ki [nM] ± SEM): < 100 nM and 97 nM
IC50 (human MAO B (hMAO B) [2]): 0.009 ± 0.001 µM

— publication PMC9607599, “Dual Targeting Ligands—Histamine H3 Receptor Ligands with Monoamine Oxidase B Inhibitory Activity—In Vitro and In Vivo Evaluation” (Pharmaceutics, 2022)
